Earlier results as cited in patent publication US20020146829A1, “Neutral and anionic colloidal particles for gene delivery” (Aventis Pharmaceuticals Products Inc., priority 2000, published 2002).

Target: T1, folate receptor on M109 cells (Mus musculus, UniProt P35846)
T1 construct: endogenous in cells; host or cells: M109 cells
T1 sequence (P35846 25-232): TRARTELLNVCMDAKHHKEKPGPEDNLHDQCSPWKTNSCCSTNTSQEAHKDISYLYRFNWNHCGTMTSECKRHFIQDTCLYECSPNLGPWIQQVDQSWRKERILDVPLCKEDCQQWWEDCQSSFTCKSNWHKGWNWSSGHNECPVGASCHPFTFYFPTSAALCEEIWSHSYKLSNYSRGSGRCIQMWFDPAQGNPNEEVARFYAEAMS

binding to folate receptor: specifically bind
Substance: distearyl-PEG400-Folate [RPR258018]
